Reference: US4933332A, “11-desoxy-17-α-hydroxycorticosterone derivatives” (priority 1988, dated 1990)
Several values for one entry are separate records, joined by “and”; a condition that tells them apart may be missing. Equal entries are not always repeated.

Tests used:
Ca-755 = test: Antitumor effect on grafted solid tumor Ca-755; assay type: in vivo, mice and rats; settings: in vivo
[1] = system: Alveolar mammary cancer RMK-1; test: Antitumor effect on grafted alveolar mammary cancer RMK-1; assay type: in vivo, mice and rats; settings: in vivo
L 1210 = test: Antitumor effect on grafted hemoblastoses (L 1210), extension of lifespan; assay type: in vivo, mice and rats; settings: in vivo, sc
[2] = system: adrenalectomized rat youngsters; test: Lifespan of adrenalectomized rat youngsters (biological test for the glucocorticoidal activity); assay type: in vivo; settings: 25-days adrenalectomized rats
Lewis lung carcinoma LL = test: Antitumor effect on grafted Lewis lung carcinoma LL; assay type: in vivo, mice and rats; settings: in vivo
P-388 = test: Antitumor effect on grafted hemoblastoses (P-388), extension of lifespan; assay type: in vivo, mice and rats; settings: in vivo
[3] = system: Spontaneous mammary tumors of mice; test: Effect on spontaneous breast tumors in repeated treatment courses; assay type: in vivo
Excerpt: For the study of the antitumor activity of the compounds according to the present invention use was made of regrafted hemoblastoses, grafted solid tumors, induced and spontaneous tumors of mice and rats. The following models were used: L 1210, P-388, hemocytoblastosis La, MOPC-406, viral lympholeukosis Mazurenko LMC-1, Ca-755, mammary carcinoma metastasizing into lungs KML, alveolar mammary cancer RMK-1, small intenstine adenocarcinoma AKATON, large intestine adenocarcinoma AKATOL, Lewis lung carcinoma LL, lung adenocarcinoma RL-67, hepatomae G-22c, G-60, G-61, sarcomae S-37 and S-180, DMBA (dimethylbenzanthracene)-induced and spontaneous mammary tumors, and […] (dimethylhydrazine)-induced tumors of the large intestine.
The compounds were administered to the animals hypodermally in kernel oil. For the purpose of comparison, a known hormonocytostatic estracyte (estra-1,3,5-(10)treine-3,17β-diol-3N-[bis-(2-chloroethyl)carbamate-17-sodium phosphate] was used which was administered hypodermally in a solution of a 0.9% NaCl, chlorphenacyl and chloroambucyl which were administered intraperitoneally in a 10% solution of ethanol, sarcolysine (β-[p-di(2-chloroethyl)aminophenyl]-α-alanine hydrochloride)--intraperitoneally in a 0.9% solution of NaCl, prednisolone (pregnadiene-1,4-triol-11β,17α,21-dione-3,20)--per os in a starch size.
Criteria of the antitumor activity of the compounds according to the present invention are: extension of the lifespan of the animals (ELA, %) and tumor growth inhibition (TGI, %). [formula] T--average lifespan of the treated animals; C--average lifespan of the control animals. [formula] O--average tumor volume in the group of treated animals; K--average tumor volume in the group of control animals.
In the case of using spontaneous or induced tumors, by means of carcinogenic substances, the criteria of the antitumor effect are: TGI, % or decrease in the tumor size, %, as compared to its initial value. The treatment of spontaneous and induced tumors was initiated after achieving, by these tumors, of a particular size excluding the possibility of a spontaneous regression.

[4] = system: Large intestine adenocarcinoma AKATOL; test: Antitumor effect on grafted large intestine adenocarcinoma AKATOL; assay type: in vivo, mice and rats; settings: in vivo
S-37 = test: Antitumor effect on grafted solid tumor S-37; assay type: in vivo, mice and rats; settings: in vivo

C[C@]12CCC(=O)C=C1CC[C@@H]1[C@@H]2CC[C@@]2(C)[C@H]1CC[C@]2(O)C(=O)COC(=O)Cc1ccc(N(CCCl)CCCl)cc1 [11-desoxy-17α-hydroxy-21-[p-di(2-chloroethyl)-aminophenylacetate] corticosterone]
Extension of the lifespan (Ca-755): 73% | Maximum tumor growth inhibition (Ca-755): 99% | Tumor growth inhibition (Ca-755): 92% and 73% and 82% | Maximum tumor growth inhibition (Ca-755; 45 mg/kg): 94% | Maximum tumor growth inhibition [1]: 59% | Extension of the lifespan of the animals (ELA) (L 1210): 31% | extension of lifespan of adrenalectomized rat youngsters [2]: 113% | Maximum tumor growth inhibition (Lewis lung carcinoma LL): 81% | Extension of the lifespan (Lewis lung carcinoma LL; 15 mg/kg): 38% | Tumor growth inhibition (Lewis lung carcinoma LL; 15 mg/kg): 76% and 56% and 39% | Maximum tumor growth inhibition (Lewis lung carcinoma LL; 45 mg/kg): 90% | Extension of the lifespan of the animals (ELA) (P-388): 81% | activity in repeated treatment courses ([3]; Table 4): reveals activity in repeated treatment courses | reduction in size of spontaneous tumors in breasts ([3]; compared to the size prior to the treatment): causes reduction in size of induced and spontaneous tumors | Increased lifespan ([3]; spontaneous, mice, 15 mg/kg/24 h × 5, 2 courses, 3 weeks interval): 11% | Decrease or increase (+) of the tumor, % of the initial one ([3]; spontaneous, mice, 15 mg/kg/24 h × 5, 2 courses, 3 weeks interval, week 1): 23% | Decrease or increase (+) of the tumor, % of the initial one ([3]; spontaneous, mice, 15 mg/kg/24 h × 5, 2 courses, 3 weeks interval, week 2): 37% | Decrease or increase (+) of the tumor, % of the initial one ([3]; spontaneous, mice, 15 mg/kg/24 h × 5, 2 courses, 3 weeks interval, week 3): +7% | Decrease or increase (+) of the tumor, % of the initial one ([3]; spontaneous, mice, 15 mg/kg/24 h × 5, 2 courses, 3 weeks interval, week 4): 64% | Decrease or increase (+) of the tumor, % of the initial one ([3]; spontaneous, mice, 15 mg/kg/24 h × 5, 2 courses, 3 weeks interval, week 5): 20% | Decrease or increase (+) of the tumor, % of the initial one ([3]; spontaneous, mice, 15 mg/kg/24 h × 5, 2 courses, 3 weeks interval, week 6): 50% | Decrease or increase (+) of the tumor, % of the initial one ([3]; spontaneous, mice, 15 mg/kg/24 h × 5, 2 courses, 3 weeks interval, week 7): 25% | Decrease or increase (+) of the tumor, % of the initial one ([3]; spontaneous, mice, 15 mg/kg/24 h × 5, 2 courses, 3 weeks interval, week 8): 16% | Maximum tumor growth inhibition [4]: 98% | Extension of the lifespan (S-37): 42% | Maximum tumor growth inhibition (S-37): 99% | Tumor growth inhibition (S-37): 99% and 94% and 91% | recovery (S-37): 28% | Maximum tumor growth inhibition (S-37; 45 mg/kg): 99%
